In data set [1] the test system is IK1, encoded by Kir channels. The data set can be described thus: Block of inward current in voltage-clamp. It counts as cell-based, human. Particulars: hiPSC-CMs cultured in maturation medium. The protocol:
All recordings were performed at RT.
Cells were superfused with an extracellular solution containing (mM) NaCl 136.8, KCl 4, HEPES 10, CaCl2 2, MgCl2 1, and Glucose 10 (pH adjusted to 7.2 with NaOH) for AP recording and K^+ current whole-cell recording. For whole-cell recording of Na^+ and Ca^2+ currents, the following extracellular solution was used (mM): NaCl 40, KCl 4, NMDG 96.8, HEPES 10, CaCl2 2, MgCl2 1, and Glucose 10 (pH adjusted to 7.2 with HCl); 1 mM of CdCl2 was also added to block L-type Ca^2+ currents when recording Na^+ currents.
Patch pipettes contained (mM): KCl 150, HEPES 10, EGTA 10, and MgATP 2 (pH adjusted to 7.2 with KOH). For AP recording, perforated patch recording was used, and pipettes were backfilled with a solution containing 50 μg/mL gramicidin (diluted from a 50 mg/mL gramicidin DMSO stock solution). A stock solution of ivabradine was prepared with DMSO. All stock solutions were diluted ≥1:1000 in extracellular solution before use.

For a further data set, the system named is ACC2. On the set-up: method as in PMID 12842871. Particulars: ACC2 isoform; cited from earlier work.
For a further data set, the system named is iCell CMs^2. The data set can be described thus: Calcium transients, EarlyTox dye, FDSS. Format: cell-based, human. The following applies: maturation medium vs maturation medium without ACC2i. The procedure:
(§1) iPSC C32-derived CMs were mounted on glass-bottom organ dishes (MatTek, P35G-1.5-14-c) coated with matrigel and incubated with Fluo-4 (Molecular Probes) at 5 µM for 30 min. Fluo-4 was washed in Tyrode’s solution for 30 min before imaging. Cells were placed in Tyrode’s solution containing CaCl2: 1.8 mM; NaCl: 130 mM; KCl: 5.4 mM; HEPES: 25 mM; MgCl2·6H2O: 0.5 mM; NaH2PO4: 0.4 mM; pH 7.4 at 37 °C for imaging. CMs were paced at 1 Hz and live imaging was recorded at 98 fps using a Nikon Eclipse with a Yokogawa CSU-X1 spinning disk and an EM-CCD Andor camera for high-speed acquisition. Individual whole-cell calcium transient intensities were analyzed in R software (V4.3.1). iCell CMs^2 were plated in 96-well CellCarrier Ultra Phenoplates (PerkinElmer) coated with fibronectin and stained with the EarlyTox^TM Cardiotoxicity kit (Molecular Devices, San Jose, CA, USA), following the manufacturer’s recommendations. Calcium transients were analyzed in the FDSS/µCell system (Hamatsu Photonics, Hamamatsu, Japan). Data were analyzed using FDSS Wavefront Analysis Software (V.1.2.2E). Isoproterenol was used at a final concentration of 1 µM. Calcium transients are calculated as ∆F/F0, with signal leveling and background normalization, where F0 is background fluorescence and F is fluorescence intensity. For each cell, amplitude (peak intensity), upstroke velocity, decay velocity, and peak width at 70% duration (PWD70%) were calculated.

The test system of another data set is ACC1. On the set-up: method as in PMID 12842871. The following applies: ACC1 isoform; cited from earlier work.
The test system of data set [2] is hiPSC-CMs. The data set can be described thus: Seahorse bioenergetics (Mito Stress test, etomoxir FAO). It counts as cell-based, human. Particulars: maturation medium versus maturation medium without ACC2i. The procedure: The Seahorse XF96 extracellular flux analyzer (Agilent, Santa Clara, CA, USA) was used to assess mitochondrial function. Seahorse plates were coated with fibronectin, and hiPSC-CMs were seeded onto the plates at a density of 30,000 cells per well. Culture medium was exchanged for Agilent Seahorse XF RPMI Basal Medium supplemented with 5.5 mM glucose, 2 mM glutamine, 150 µM sodium pyruvate, 100 µM Palmitate/BSA, and 5 mM Hepes, 1 h before the assay and for the duration of the measurement. For the Mito Stress test, mitochondria inhibitors were injected during the measurements as follows: Oligomycin (2 µM), 2.4-Dinitrophenol (DNP, 225 µM), rotenone, and antimycin A (both at 1.11 µM). The oxygen consumption rate (OCR) and extracellular acidification rate (ECAR) values were normalized to the number of nuclei per well quantified by Hoechst staining and fluorescence imaging. The baseline OCR was defined as the average values measured from time points 2 to 4 during the experiments subtracting the non-mitochondrial oxygen consumption rate determined as the minimum rate measurement after rotenone/antimycin A injection. Spare respiratory capacity was calculated as the difference between uncoupler DNP and baseline OCR values. ATP production was calculated by subtracting the minimum rate measurement after Oligomycin injection from the last rate measurement before Oligomycin injection. Proton leak was calculated by subtracting non-mitochondrial OCR from the minimum rate measurement after Oligomycin injection. Lastly, oxidation of exogenous FA was measured after injection of 50 µM Etomoxir. OCR due to FA oxidation was determined by subtracting the minimum rate measurement after Etomoxir injection from the last rate measurement before Oligomycin injection. All wells with a basal respiratory rate below 40 pmol/min were excluded from analysis.

A further data set concerns iPSC C32 CMs. Briefly: Calcium imaging, Fluo-4, with and without isoproterenol. It counts as cell-based, human. The protocol: as §1
HiPSC-C32 CMs cultured in
Data are presented as mean
E. Representative fluorescent images
ACC2i, and maturation medium. Scale bars: 20µm.
Figure S6. Maturation medium enhances response to hERG blockers. AP recordings were obtained […]
antiarrhythmic known to specifically block hERG.

Data set [3] concerns hiPSC-CMs. The data set can be described thus: hiPSC-CM viability by number of nuclei. Format: cell-based, human. The following applies: number of nuclei after 7 days in culture. The procedure: We initially investigated the impact of increasing concentrations of the ACC inhibitor CP640186 (hereafter referred to as ACC2i, given the predominant expression of ACC2 in CMs) on hiPSC-CM viability. […] Based on these initial results, a concentration of 5 uM was selected for further examination of the role of ACC2i in improving hiPSC-CM maturation.
Figure S1. ACC2 inhibition enhances fatty acid oxidation. Increasing concentrations of ACC2 inhibition are toxic for hiPSC-CMs at concentrations exceeding 5uM. A. Schematic showing signaling cascade and mode of action of acetyl-CoA carboxylase (ACC). There are 2 ACC isoforms: ACC1 in cytosol that is dedicated to the rate limiting step of de novo lipogenesis, and ACC2 a mitochondrial membrane […]
palmitoyltransferase (CPT-1), responsible for long-chain fatty-acid transport into mitochondria.
Combined ACC1 and 2 inhibition is expected to reduce malonyl-CoA levels and de-novo lipogenesis, and to enhance CPT-1 activity and fatty acid oxidation (FAO). G-6-P (glucose-6-phosphate), TCA cycle (tricarboxylic acid cycle), ETC (electron transport chain). B. Impact of increasing doses of ACC2i on hiPSC-CMs viability assessed by number of nuclei after 7 days in culture.
ACC2i concentrations higher than 5 µm. Source of mitochondria image: Servier Medical Art. Statistical […]
(1 picture or pasted object on this page, not shown here)

Data set [4] concerns hiPSC-CMs. The data set can be described thus: In vitro hypertrophy model, ET-1 stimulation. Format: cell-based, human. Particulars: 10 nM ET-1, 48 h. The procedure:
After 2 weeks in either standard or maturation media, medium was switched to hypertrophy stimulation medium composed of RPMI no glucose supplemented with B27 plus insulin, 5.5 mM glucose and 10 nM endothelin-1 (ET-1, E7764). hPSC-CMs were cultured for 48 h in this medium before their use for further analyses.
Cell area, circularity index, and aspect ratio were determined with FIJI (ImageJ v.2.14.0) software using standard analysis plugins. For each condition, at least 60 cells were analyzed.
RNA extraction was performed using the Agencourt RNAdvance Cell V2 kit (catalog no. A47942, Beckman Coulter, Bromma, Sweden) according to the manufacturer’s instructions. RNA quality was assessed using the Fragment Analyzer Standard Sensitivity RNA kit from Agilent Technologies, ensuring an RNA integrity number greater than 7. Library preparation for iCell cardiomyoctes^2 and Chips22 derived CMs was performed at the NGI (National Genomic Infrastructure, KTH, Stockholm, Sweden) using the Illumina TruSeq stranded mRNA library preparation kit. Clustering was conducted by ‘cBot’, and sequencing was performed on a NovaSeq 6000 (NovaSeq Control Software 1.6.0/RTA v3.4.4) with a 2 × 150 setup using the ‘NovaSeqXp’ workflow in the ‘S4’ flowcell. […] Sequenced reads were quality-controlled with the FastQC software and pre-processed with Trim Galore. Processed reads from iCell cardiomyocytes^2 and Chips22 were aligned to the reference genome GRCh37 with the STAR aligner, and Tophat2 with Bowties was used to map IPS C32 reads to GRCh38. Read counts for the genes were generated using the featureCounts library and normalized FPKM values calculated with StringTie. […]
Differences in gene expression were identified using the DESeq2 method. The analysis was based on read counts, which are required to assess the measurement precision accurately. […]

[5] abbreviates: 1 µM isoproterenol, maturation medium compared to maturation medium without ACC2i.

Positions of bridges follow the written chain, without caps; N, C: chain ends. No end group written: not given here. Some results are limits rather than exact numbers.

Broadly, the IC50 is the concentration at which inhibition is half-maximal.

`[Ba+2].[Cl-].[Cl-]` [Ba^2+, BaCl2]: the “block of inward current” value in data set [1] (100 µM Ba2+) was more than 90%.

`O=C(c1c2ccccc2cc2ccccc12)N1CCC(N2CCC[C@@H](C(=O)N3CCOCC3)C2)CC1` [CP-640186]: the IC50 with ACC2 was approximately 55 nM. Also, in the data set with iCell CMs^2, the calcium transient duration result was “reduction”; the “calcium uptake and decay kinetics” value is reported as “significant enhancement”; the transient calcium amplitude entry is listed as “no change”. Further, the IC50 in the data set on ACC1 was approximately 55 nM. Besides, in the data set on hiPSC-CMs [2], the “FAO reliance (change in basal respiration upon etomoxir)” value is on record as “significantly increased”. Further, in the data set on hiPSC-CMs [2] (5 µM ACC2i), the “increase in reserve capacity” value was found to be 1.7 fold and the “reduction in energy dissipation through proton leak” value was found to be 2.5 fold. Further, in the data set on iPSC C32 CMs (with ACC2i vs without), the “calcium transient amplitude and kinetics” value was “significantly improved”. Moreover, the “ACC2i concentration resulting in a decrease in the number of nuclei (potential cardiac toxicity)” value in the data set on hiPSC-CMs [3] was “exceeding 5 uM”.

Take `CC(C)NCC(O)c1ccc(O)c(O)c1` (centres unmarked) [isoproterenol]: in the data set on iPSC C32 CMs (setting [5]), the “increase in amplitude upon stimulation” value is listed as “significantly higher increase” and the “increase in beat rate upon stimulation” value is given as “significantly higher increase”.

Consider `COc1cc2c(cc1OC)CC(=O)N(CCCN(C)C[C@H]1Cc3cc(OC)c(OC)cc31)CC2` [ivabradine], for which, in data set [1] (10 µM ivabradine), the “block of inward current” value is ~ 5%.

“endothelin-1 (CSCSSLMDKECVYFCHLDIIW; disulfide 1-15, 3-11; ends not checked; UniProt P05305 53-73, looked up) [ET-1]”: the structural changes entry in the data set on hiPSC-CMs [4] (cells cultured in standard medium) is given as “no significant structural changes”. Besides, in the data set with hiPSC-CMs [4] (maturation medium group), the cell area entry is reported as “trend towards increased” and the length-to-width ratio entry is “significant decrease”.

These data come from PMC11352932, “Enhancing Maturation and Translatability of Human Pluripotent Stem Cell-Derived Cardiomyocytes through a Novel Medium Containing Acetyl-CoA Carboxylase 2 Inhibitor” (Cells, 2024).
